1 molecule from PMC10915168, “DJ-1 protects proteins from acylation by catalyzing the hydrolysis of highly reactive cyclic 3-phosphoglyceric anhydride” (Nature Communications, 2024) can be followed below.

The target of this assay is T1, DJ-1 (Homo sapiens, UniProt Q99497, C106S).
T1 construct: gene PARK7; full-length, N-terminal His-tag removed by TEV protease; Ni-NTA purified recombinant; ~20 kDa
T1 sequence (Q99497 1-189 C106S): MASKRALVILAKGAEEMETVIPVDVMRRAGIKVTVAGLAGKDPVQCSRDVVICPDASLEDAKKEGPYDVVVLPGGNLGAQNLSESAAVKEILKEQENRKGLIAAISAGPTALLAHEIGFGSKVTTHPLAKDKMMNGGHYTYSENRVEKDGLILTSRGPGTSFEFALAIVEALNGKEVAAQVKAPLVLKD
Put plainly: end-point NAC assay of remaining cPGA; 1H-NMR. In kind it is biochemical. Particulars: 500 µM cPGA, 2 min, 50 mM sodium phosphate pH 7.0, 25 °C; catalytic cysteine mutant.

Molecules are shown by their SMILES.

`O=C1OP(=O)(O)OC[C@H]1O` [cPGA]: the “end-point NAC assay of remaining cPGA; 1H-NMR” value is listed as “Mutation of the catalytic cysteine (C106S) in DJ-1 completely abolished this activity”.
